Experimental data: article PMC10757017 (Heliyon, 2023)

Key:
[1] = target: T1, α-glucosidase (Saccharomyces cerevisiae, UniProt P53341); assay: α-Glucosidase inhibitory assay; assay type: biochemical
[2] = target: T1, α-glucosidase; assay: Kinetic studies; assay type: biochemical; settings: for type of inhibition: Lineweaver-Burk plots, Km increases, Vmax constant

T1 sequence (P53341 whole entry): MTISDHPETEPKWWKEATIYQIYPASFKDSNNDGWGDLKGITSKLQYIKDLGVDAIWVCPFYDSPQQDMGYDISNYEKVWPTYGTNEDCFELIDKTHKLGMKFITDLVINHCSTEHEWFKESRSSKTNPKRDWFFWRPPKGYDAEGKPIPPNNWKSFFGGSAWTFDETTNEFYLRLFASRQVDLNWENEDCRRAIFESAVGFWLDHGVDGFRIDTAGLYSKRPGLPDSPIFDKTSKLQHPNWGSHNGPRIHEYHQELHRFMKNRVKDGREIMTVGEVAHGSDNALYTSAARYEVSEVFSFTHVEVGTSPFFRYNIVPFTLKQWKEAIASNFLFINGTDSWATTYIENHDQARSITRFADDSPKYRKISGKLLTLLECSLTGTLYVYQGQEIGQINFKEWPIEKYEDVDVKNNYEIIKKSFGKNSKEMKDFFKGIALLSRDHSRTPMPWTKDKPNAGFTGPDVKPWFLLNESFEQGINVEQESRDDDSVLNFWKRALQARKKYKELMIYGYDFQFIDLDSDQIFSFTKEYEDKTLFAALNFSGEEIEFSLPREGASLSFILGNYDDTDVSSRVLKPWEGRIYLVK

IC50 [1] | Ki [2] | type of inhibition [2] | SMILES
350 nM | – | – | CN(C)c1ccc(C(=NN=Cc2ccc(O)c(O)c2)c2ccc(N(C)C)cc2)cc1 [Compound 17, 4-{[bis-(4-dimethylamino-phenyl)-methylene]-hydrazonomethyl}-benzene-1,2-diol]
490 ± 1430 nM | – | – | CN(C)c1ccc(C(=NN=Cc2cccc(C=O)c2)c2ccc(N(C)C)cc2)cc1 [Compound 15, 3-{[bis-(4-dimethylamino-phenyl)-methylene]-hydrazonomethyl}-benzaldehyde]
330 nM | – | – | CN(C)c1ccc(C(=NN=Cc2cccc(O)c2O)c2ccc(N(C)C)cc2)cc1 [Compound 4, 3-{[bis-(4-dimethylamino-phenyl)-methylene]-hydrazonomethyl}-benzene-1,2-diol]
820 ± 1120 nM | – | – | CN(C)c1ccc(C(=NN=Cc2ccc(O)cc2)c2ccc(N(C)C)cc2)cc1 [Compound 26, 4-{[bis-(4-dimethylamino-phenyl)-methylene]-hydrazonomethyl}-phenol]
280 nM | 3640 ± 12 nM | competitive | COc1cccc(C=NN=C(c2ccc(N(C)C)cc2)c2ccc(N(C)C)cc2)c1O [Compound 9, 2-{[bis-(4-dimethylamino-phenyl)-methylene]-hydrazonomethyl}-6-methoxy-phenol]
280 nM | 2790 ± 11 nM | competitive | CN(C)c1ccc(C(=NN=Cc2cc([N+](=O)[O-])ccc2O)c2ccc(N(C)C)cc2)cc1 [Compound 8, 2-{[bis-(4-dimethylamino-phenyl)-methylene]-hydrazonomethyl}-4-nitro-phenol]
680 ± 290 nM | – | – | CN(C)c1ccc(C(=NN=Cc2ccc(O)cc2O)c2ccc(N(C)C)cc2)cc1 [Compound 2, 4-{[bis-(4-dimethylamino-phenyl)-methylene]-hydrazonomethyl}-benzene-1,3-diol]
